Measurements published in ChEMBL document CHEMBL5303304, “EUbOPEN Chemogenomics Library - IncuCyte” (2023).

What was measured:
Type in all cases: toxicity, cell-based
U2OS = experiment: Incucyte cell viability with U2OS; details: human, 10 µM, compound concentration 10 uM
HEK-293T = experiment: Incucyte cell viability with HEK293T; details: human, 10 µM, compound concentration 10 uM
Fibroblast = experiment: Incucyte cell viability with human fibroblast; details: 10 µM, compound concentration 10 uM
Also: unitless GR value; below 1 slowed growth and below 0 cell loss.

Row | Structure (SMILES) | Growth Rate (U2OS; 0 h, replicate number 1) | Growth Rate (U2OS; 6 h, replicate number 1) | Growth Rate (U2OS; 6 h, replicate number 2) | Growth Rate (U2OS; 12 h, replicate number 1) | Growth Rate (U2OS; 12 h, replicate number 2) | Growth Rate (U2OS; 18 h, replicate number 1) | Growth Rate (U2OS; 18 h, replicate number 2) | Growth Rate (U2OS; 24 h, replicate number 1) | Growth Rate (HEK-293T; 0 h, replicate number 1) | Growth Rate (HEK-293T; 0 h, replicate number 2) | Growth Rate (Fibroblast; 6 h, replicate number 1) | Growth Rate (Fibroblast; 12 h, replicate number 2) | Growth Rate (Fibroblast; 24 h, replicate number 2) | Growth Rate (U2OS; 24 h, replicate number 2) | Growth Rate (Fibroblast; 0 h, replicate number 2) | Growth Rate (Fibroblast; 24 h, replicate number 1) | Growth Rate (Fibroblast; 18 h, replicate number 1) | further results
1 | C[C@@H](CN1CC[C@@]2(C)c3cccc(O)c3C[C@@H]1C2(C)C)OCc1ccccc1.Cl | -0.32 | 0.53 | 0.85 | 0.61 | 0.78 | 0.81 | 0.98 | 0.79 | 0.44 | -0.22 | 0.03 | 0.93 | 0.98 | – | – | – | – | Growth Rate (HEK-293T; 6 h, replicate number 1): 0.31; Growth Rate (HEK-293T; 12 h, replicate number 1): 0.74; Growth Rate (HEK-293T; 18 h, replicate number 1): 0.77; Growth Rate (HEK-293T; 18 h, replicate number 2): 0.95; Growth Rate (HEK-293T; 24 h, replicate number 1): 0.8; Growth Rate (HEK-293T; 24 h, replicate number 2): 0.96; Growth Rate (Fibroblast; 0 h, replicate number 1): -1; Growth Rate (Fibroblast; 6 h, replicate number 2): -0.28; Growth Rate (Fibroblast; 18 h, replicate number 2): 1
2 | CC(C)(O)c1coc(S(=O)(=O)NC(=O)Nc2c3c(cc4c2CCC4)CCC3)c1 | 0.85 | 0.92 | – | 0.88 | 0.89 | – | 0.99 | – | -0.08 | 0.34 | – | – | – | 0.94 | 0.57 | 0.99 | – | –
3 | NCc1ccc(OCCCc2sc(-c3ccc4c(c3)/C(=N/Nc3nc5ccccc5s3)CCC4)nc2C(=O)O)cc1 | 0.77 | 0.23 | – | 0.44 | 0.7 | 0.63 | 0.72 | 0.58 | 0.54 | -0.79 | 0.94 | – | – | 0.74 | -0.83 | – | – | –
4 | Cc1nn(C)c(COc2ccc(N3CCN(S(=O)(=O)N(C)C)CC3)cc2)c1-c1cccc2c(CCCOc3cccc4ccccc34)c(C(=O)O)n(CCN3CCOCC3)c12 | 0.4 | 0.3 | 0.93 | 0.85 | 0.97 | 0.86 | 0.92 | 0.86 | 0.38 | – | 0.53 | – | – | 0.98 | – | 0.76 | 0.58 | Growth Rate (HEK-293T; 6 h, replicate number 1): 0.99; Growth Rate (HEK-293T; 6 h, replicate number 2): 0.84; Growth Rate (HEK-293T; 12 h, replicate number 1): 0.93; Growth Rate (HEK-293T; 18 h, replicate number 1): 0.93
5 | Cc1cc(OCc2nc3ccccc3s2)ccc1NC(=O)Nc1ccc(Cl)c(Cl)c1 | – | – | – | – | – | – | 0.98 | – | 0.1 | -0.01 | – | 0.94 | 0.92 | – | -0.81 | – | – | Growth Rate (HEK-293T; 12 h, replicate number 2): 0.92; Growth Rate (Fibroblast; 0 h, replicate number 1): -1; Growth Rate (Fibroblast; 18 h, replicate number 2): 0.94
6 | Cc1nn(-c2nc3ccc(Cl)c(Cl)c3[nH]2)c(O)c1C1OC(=O)c2ccccc21 (stereo not drawn) | 0.81 | 0.82 | – | – | – | – | – | – | 0.09 | – | 0.95 | – | – | – | -0.86 | 0.83 | – | Growth Rate (Fibroblast; 0 h, replicate number 1): -1
7 | CCCCCCC(Sc1nc(Cl)cc(NCc2ccc(-c3ccccc3)cc2)n1)C(=O)O (stereo not drawn) | 0.82 | – | – | 0.89 | 0.97 | – | – | 0.94 | 0.04 | – | – | – | – | 0.96 | -0.63 | 0.91 | – | –
8 | N[C@@H](CC(=O)O)Cn1nnc(-c2ccc(Oc3ncc(Cl)cc3F)cc2)n1 | – | 0.62 | – | – | – | – | – | – | 0.53 | – | – | 0.4 | 0.76 | – | – | 0.95 | – | Growth Rate (HEK-293T; 6 h, replicate number 1): 0.85; Growth Rate (HEK-293T; 6 h, replicate number 2): 0.12; Growth Rate (HEK-293T; 12 h, replicate number 1): 0.94; Growth Rate (HEK-293T; 12 h, replicate number 2): 0.58; Growth Rate (HEK-293T; 18 h, replicate number 2): 0.72; Growth Rate (HEK-293T; 24 h, replicate number 1): 0.95; Growth Rate (HEK-293T; 24 h, replicate number 2): 0.83; Growth Rate (Fibroblast; 18 h, replicate number 2): 0.74
9 | Cc1sc(C(=O)c2cncnc2N[C@@H]2C[C@H](COS(N)(=O)=O)[C@@H](O)C2)cc1[C@@H]1NCCc2ccc(Cl)cc21 | – | 0.59 | -0.29 | 1 | -0.03 | 0.96 | 0.17 | 0.66 | -0.45 | -0.97 | 0.42 | 0.8 | – | 0.3 | -0.16 | 0.47 | 0.44 | Growth Rate (U2OS; 0 h, replicate number 2): 0.29; Growth Rate (HEK-293T; 18 h, replicate number 1): 0.9; Growth Rate (HEK-293T; 24 h, replicate number 1): 0.74; Growth Rate (HEK-293T; 24 h, replicate number 2): 0.88; Growth Rate (Fibroblast; 12 h, replicate number 1): 0.55
10 | Cc1nnc2n1-c1sc3c(c1C(c1ccccc1Cl)=NC2)C[C@H](C(=O)N1CCOCC1)C3 | – | 0.8 | – | – | 0.83 | – | 0.93 | 0.94 | -0.2 | -0.35 | – | 0.19 | 0.94 | 0.93 | – | – | – | Growth Rate (HEK-293T; 6 h, replicate number 1): 0.78; Growth Rate (Fibroblast; 6 h, replicate number 2): -0.71; Growth Rate (Fibroblast; 18 h, replicate number 2): 0.64
11 | C=C[C@@]12CCc3cc(O)ccc3[C@H]1CC[C@@]1(C)[C@H]2CC[C@@H]1O | 0.1 | 0.77 | 0.96 | 0.99 | 0.95 | – | 0.93 | – | 0.4 | -0.37 | 0.24 | 0.29 | 0.71 | 0.91 | – | 0.83 | 0.92 | Growth Rate (Fibroblast; 0 h, replicate number 1): -1; Growth Rate (Fibroblast; 6 h, replicate number 2): 0.88; Growth Rate (Fibroblast; 12 h, replicate number 1): 0.86; Growth Rate (Fibroblast; 18 h, replicate number 2): 0.95
12 | CO[C@H](C)CN1CC[C@@]2(C)c3ccc(O)cc3C[C@@H]1C2(C)C.Cl | – | 0.63 | 0.94 | 0.93 | 0.77 | 0.87 | – | 0.87 | 0.75 | 0.63 | 0.46 | – | – | 0.82 | 0.54 | 0.96 | 0.79 | Growth Rate (U2OS; 0 h, replicate number 2): 0.71; Growth Rate (Fibroblast; 6 h, replicate number 2): 0.74; Growth Rate (Fibroblast; 12 h, replicate number 1): 0.6
13 | COCCN(C)c1ccc(NC(=O)/C=C(\C)c2ccc3ccccc3c2)c(C(=O)O)c1 | 0.79 | 0.9 | – | 0.72 | 0.92 | 0.88 | – | 0.91 | 0.87 | -0.37 | – | – | – | – | -0.29 | – | – | –
14 | CC(C)(c1ccc(OCc2cccc(COc3ccc(C(=N)N)cc3)c2)cc1)c1ccc(O[C@@H]2O[C@H](C(=O)O)[C@@H](O)[C@H](O)[C@H]2O)cc1.O=C(O)C(F)(F)F | 0.36 | 0.61 | 0.56 | 0.97 | 0.68 | -0.41 | 0.89 | – | 0.51 | -0.08 | 0.34 | – | 0.92 | – | – | 0.88 | – | Growth Rate (U2OS; 0 h, replicate number 2): -0.17; Growth Rate (HEK-293T; 18 h, replicate number 1): 0.87; Growth Rate (HEK-293T; 24 h, replicate number 1): 1; Growth Rate (Fibroblast; 0 h, replicate number 1): -1
15 | CC(F)(F)CN1C(=O)c2[nH]nc(-c3cccc4[nH]c(=O)oc34)c2C1c1ccc(Oc2cc(C(F)(F)F)cc(C(F)(F)F)c2)cc1 (stereo not drawn) | – | – | – | – | – | – | – | 0.88 | 0.14 | -0.56 | 0.84 | – | – | – | -0.97 | 0.96 | 0.98 | Growth Rate (HEK-293T; 12 h, replicate number 2): 0.76; Growth Rate (HEK-293T; 18 h, replicate number 1): 0.83; Growth Rate (HEK-293T; 18 h, replicate number 2): 0.68; Growth Rate (HEK-293T; 24 h, replicate number 1): 0.78; Growth Rate (HEK-293T; 24 h, replicate number 2): 0.75
16 | C/C(=C\C(=O)Nc1ccccc1C(=O)[O-])c1ccc2ccccc2c1.[Na+] | 0.38 | 0.69 | – | 0.95 | – | 0.83 | – | 0.94 | 0.79 | 0.69 | 0.57 | 0.94 | – | – | -0.44 | 0.83 | 0.97 | Growth Rate (Fibroblast; 6 h, replicate number 2): -0.21
17 | Cc1nnc2n1-c1sc3c(c1C(c1ccccc1Cl)=NC2)C[C@@H](C(=O)N1CCOCC1)C3 | 0.65 | 0.49 | – | 0.84 | – | – | – | – | -0.21 | -0.7 | – | 0.81 | 0.86 | – | – | – | – | –
18 | CCCCc1c(-c2ccccc2)nc(N)nc1-c1ccc(OCc2ccccc2)c(F)c1F | – | 0.5 | 0.27 | – | 0.36 | – | 0.55 | 1 | -0.23 | -0.46 | – | – | – | 0.77 | 0.8 | – | – | Growth Rate (U2OS; 0 h, replicate number 2): -0.86; Growth Rate (HEK-293T; 12 h, replicate number 2): 0.89; Growth Rate (HEK-293T; 24 h, replicate number 2): 0.99
